From publication PMC11062899, “De novo development of small cyclic peptides that are orally bioavailable” (Nature Chemical Biology, 2023)
Values joined by “and” are separate entries in the source; they are usually repeats but may differ in a detail not shown here. Equal values may be shown once.

How the values were obtained:
human α-thrombin = human α-thrombin (Homo sapiens, UniProt P00734); experiment: Protease inhibition, Ki for human α-thrombin (fluorogenic substrate Z-Gly-Gly-Arg-AMC); format: biochemical; conditions: replicates R1-R3
Outline: (§1)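 Inhibition was measured as AMC fluorescence from 50 μM substrate, monitored for 30 min at 25 °C, relative to a peptide-free control. Human and rat enzymes were present at 2 nM and 3 nM final, respectively, in 50 mM Tris-HCl pH 7.4, 150 mM NaCl, 10 mM MgCl2, 1 mM CaCl2. Ki derives from fitted IC50 via Cheng–Prusoff.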

porcine pancreatin = experiment: Peptide stability in simulated intestinal fluid (SIF); format: in vitro ADME; conditions: after 8 h vs 0 h (TIC); average of R1-R3
Description: (§2) Simulated gastric and intestinal fluids were prepared according to the States Pharmacopeia specifications (Test Solutions, United States Pharmacopeia 35, NF 30, 2012). SGF: 0.2 g of sodium chloride was dissolved in 50 ml of water, and the pH was adjusted to 1.2 by addition of 0.7 ml of 10 M hydrochloric acid. Then, 0.32 g of porcine pepsin (Sigma-Aldrich, P7125) was dissolved under gentle agitation, and the volume was filled up to 100 ml with Milli-Q water. SIF: 0.68 g of monobasic potassium phosphate was dissolved in 25 ml of Milli-Q water, and the pH was adjusted to 6.8 by adding 7.7 ml of a 0.2 M sodium hydroxide solution. Next, 1 g of porcine pancreatin (Sigma-Aldrich, P3292) was added under gentle agitation, and the volume was adjusted to 100 ml with Milli-Q water to afford a fine suspension. To test the stability in simulated gastrointestinal fluids, 396 μl of SGF or SIF was pre-heated at 37 °C for 10 min, and 4 μl of a 1 mM peptide solution in DMSO was added. […] Supernatant was analyzed by LC–MS to measure the peptide concentrations at the different timepoints. Residual peptide was calculated by normalizing the concentrations measured at T1 to T0.

[1] = as above; format: in vitro ADME, porcine; conditions: simulated gi fluid; 8 h, 37 °C, pH 6.8; read-out: Proteolytic stability: SIF (8 h) % remaining
Description: as §2

porcine pepsin = biological target: T1, porcine pepsin (Sus scrofa, UniProt P00791); experiment: Peptide stability in simulated gastric fluid (SGF); format: in vitro ADME
T1 construct: 0.32 g of porcine pepsin (Sigma-Aldrich, P7125) was dissolved under gentle agitation; purchased Sigma-Aldrich P7125
Description: as §2

[2] = Metabolic stability in rat liver microsomes (RLMs); conditions: rat, microsomes
rat α-thrombin = biological target: T2, rat α-thrombin (Rattus norvegicus, UniProt P18292); experiment: Protease inhibition, Ki for rat α-thrombin (fluorogenic substrate Z-Gly-Gly-Arg-AMC); format: biochemical; conditions: replicates R1-R3
T2 construct: rat α-thrombin (Molecular Innovations) were used at final concentrations of 2 nM and 3 nM; purchased Molecular Innovations
Outline: as §1

[3] = Passive artificial membrane permeability (PAMPA)
[4] = peptide 1.33E+02 uM, slope of proteolytic substrate cleavage over time

T1 sequence (P00791 60-385): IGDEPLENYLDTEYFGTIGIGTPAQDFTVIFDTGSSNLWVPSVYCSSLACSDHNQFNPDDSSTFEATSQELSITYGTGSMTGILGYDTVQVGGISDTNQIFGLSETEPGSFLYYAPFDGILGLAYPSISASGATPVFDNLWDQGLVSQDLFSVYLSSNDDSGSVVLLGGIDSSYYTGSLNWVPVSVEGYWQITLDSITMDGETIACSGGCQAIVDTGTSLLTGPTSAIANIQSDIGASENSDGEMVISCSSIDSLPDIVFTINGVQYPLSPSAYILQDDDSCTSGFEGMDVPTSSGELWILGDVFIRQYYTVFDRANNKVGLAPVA

In the case of O=C1C[C@H]2CCCN2C(=O)[C@H](Cc2ccccn2)NC(=O)[C@@H](NC(=O)c2ccc(Cl)s2)CSCCS(=O)(=O)CCSCCN1 [compound 12], the “Human alpha thrombin inhibition, slope normalized to DMSO” value (human α-thrombin; peptide 1.02E-03 uM) is reported as 102.9 and 99.8 and 96.6, the “Human alpha thrombin inhibition, slope normalized to DMSO” value (human α-thrombin; peptide 1.04E+00 uM) is reported as 56.9 and 56.3 and 49.2 and the “Human alpha thrombin inhibition, slope normalized to DMSO” value (human α-thrombin; peptide 1.27E-04 uM) is reported as 90.5 and 95.3 and 95.8. The “Human alpha thrombin inhibition, slope normalized to DMSO” value (human α-thrombin; peptide 1.30E-01 uM) was 71.9 and 86.4 and 78.8, the “Human alpha thrombin inhibition, slope normalized to DMSO” value (human α-thrombin; [4]) was 6.4 and 9.7 and 4.3 and the “Human alpha thrombin inhibition, slope normalized to DMSO” value (human α-thrombin; peptide 1.63E-02 uM) was 99.5 and 89.1 and 90.1. The “Human alpha thrombin inhibition, slope normalized to DMSO” value (human α-thrombin; peptide 1.67E+01 uM) was 16.0 and 14.1 and 9.4, the “Human alpha thrombin inhibition, slope normalized to DMSO” value (human α-thrombin; peptide 2.03E-03 uM) was 98.8 and 94.5 and 92.3 and the “Human alpha thrombin inhibition, slope normalized to DMSO” value (human α-thrombin; peptide 2.08E+00 uM) was 52.9 and 44.1 and 36.2. The “Human alpha thrombin inhibition, slope normalized to DMSO” value (human α-thrombin; peptide 2.54E-04 uM) was 106.8 and 94.8 and 97.0, the “Human alpha thrombin inhibition, slope normalized to DMSO” value (human α-thrombin; peptide 2.60E-01 uM) was 78.1 and 77.3 and 67.5 and the “Human alpha thrombin inhibition, slope normalized to DMSO” value (human α-thrombin; peptide 3.18E-05 uM) was 100.4 and 97.0 and 90.2. For the same compound, the “Human alpha thrombin inhibition, slope normalized to DMSO” value (human α-thrombin; peptide 3.26E-02 uM) was 100.0 and 89.9 and 87.8, the “Human alpha thrombin inhibition, slope normalized to DMSO” value (human α-thrombin; peptide 3.33E+01 uM) was 12.7 and 10.3 and 16.0 and the “Human alpha thrombin inhibition, slope normalized to DMSO” value (human α-thrombin; peptide 4.07E-03 uM) was 92.6 and 96.1 and 91.8. For the same compound, the “Human alpha thrombin inhibition, slope normalized to DMSO” value (human α-thrombin; peptide 4.17E+00 uM) was 39.5 and 36.2 and 29.7, the “Human alpha thrombin inhibition, slope normalized to DMSO” value (human α-thrombin; peptide 5.09E-04 uM) was 101.4 and 93.9 and 96.1 and the “Human alpha thrombin inhibition, slope normalized to DMSO” value (human α-thrombin; peptide 5.21E-01 uM) was 64.5 and 65.3 and 59.0. For the same compound, the “Human alpha thrombin inhibition, slope normalized to DMSO” value (human α-thrombin; peptide 6.36E-05 uM) was 103.2 and 97.0 and 93.0, the “Human alpha thrombin inhibition, slope normalized to DMSO” value (human α-thrombin; peptide 6.51E-02 uM) was 93.3 and 87.6 and 88.6 and the “Human alpha thrombin inhibition, slope normalized to DMSO” value (human α-thrombin; peptide 6.67E+01 uM) was 9.5 and 8.1 and 4.7. The “Human alpha thrombin inhibition, slope normalized to DMSO” value (human α-thrombin; peptide 8.14E-03 uM) was 100.4 and 99.0 and 91.1, the “Human alpha thrombin inhibition, slope normalized to DMSO” value (human α-thrombin; peptide 8.33E+00 uM) was 24.1 and 22.7 and 13.9 and the “SIF stability, Residual peptide Average” value (porcine pancreatin) was 95.62. The remaining at 8 h [1] was 96 ± 6%, the “SGF stability, Residual peptide Average” value (porcine pepsin; after 8 h vs 0 h (TIC), average of R1-R3) was 99.15 and the “SGF stability, Residual peptide” value (porcine pepsin; after 8 h vs 0 h (TIC), single replicates R1-R3) was 102.14 and 93.27 and 102.05. For the same compound, the remaining at 8 h (porcine pepsin; simulated gi fluid, 8 h, 37 °C, pH 1.2, read-out: Proteolytic stability: SGF (8 h) % remaining) was 99 ± 5%, the microsomal CLint ([2]; CL (ul/min/mg protein) R1, RLM CL, replicate R1) was 90.2 µL/min/mg and the microsomal CLint ([2]; CL (ul/min/mg protein) R2, RLM CL, replicate R2) was 68.8 µL/min/mg. For the same compound, the microsomal CLint ([2]; CL (ul/min/mg protein) R3, RLM CL, replicate R3) was 72.9 µL/min/mg, the half-life ([2]; Half Life (min) R1, RLM metabolic stability, replicate R1, 0-60 min) was 15.4 min and the half-life ([2]; Half Life (min) R2, RLM metabolic stability, replicate R2, 0-60 min) was 20.1 min. The half-life ([2]; Half Life (min) R3, RLM metabolic stability, replicate R3, 0-60 min) was 19 min, the half-life ([2]; Metabolic stability: Half life T1/2 (min), RLMs, mean and SD, three measurements) was 18.2 ± 2 min and the microsomal CLint ([2]; Metabolic stability: RLM CL (ul/min/mg), RLMs, mean and SD, three measurements) was 77 ± 9 µL/min/mg. For the same compound, the microsomal CLint ([2]; Metabolic stability: RLM CL Average, summary table, average of R1-R3) was 77.3 µL/min/mg, the microsomal CLint ([2]; Metabolic stability: RLM CL R1, summary table, rounded, replicate R1) was 90.2 µL/min/mg and the microsomal CLint ([2]; Metabolic stability: RLM CL R2, summary table, rounded, replicate R2) was 68.8 µL/min/mg. The microsomal CLint ([2]; Metabolic stability: RLM CL R3, summary table, rounded, replicate R3) was 73 µL/min/mg, the “Rat alpha thrombin inhibition, slope normalized to DMSO” value (rat α-thrombin; [4]) was 4.6 and 7.6 and 2.5 and the “Rat alpha thrombin inhibition, slope normalized to DMSO” value (rat α-thrombin; peptide 1.67E+01 uM) was 7.9 and 9.3 and 7.8. The “Rat alpha thrombin inhibition, slope normalized to DMSO” value (rat α-thrombin; peptide 2.08E+00 uM) was 26.1 and 28.9 and 26.4, the “Rat alpha thrombin inhibition, slope normalized to DMSO” value (rat α-thrombin; peptide 3.33E+01 uM) was 4.7 and 8.8 and 5.5 and the “Rat alpha thrombin inhibition, slope normalized to DMSO” value (rat α-thrombin; peptide 4.17E+00 uM) was 21.7 and 23.0 and 20.8. The “Rat alpha thrombin inhibition, slope normalized to DMSO” value (rat α-thrombin; peptide 6.67E+01 uM) was 5.5 and 8.4 and 4.7, the “Rat alpha thrombin inhibition, slope normalized to DMSO” value (rat α-thrombin; peptide 8.33E+00 uM) was 11.6 and 14.0 and 11.0 and the “PAMPA permeability: % permeability” value ([3]; 50 μM, 12–18 h, acceptor concentration relative to equilibrium) was 0.35 ± 0.03%. The Papp at 50 μM ([3]; PAMPA, pH 7.4) was 0.0229 ×10⁻⁶ cm/s, the “Permeability% Average” value ([3]; PAMPA, average of R1-R3) was 0.35% and the “Permeability% R1” value ([3]; PAMPA, replicate R1, TIC of top well sample relative to sample at theoretical equilibrium) was 0.32%. The “Permeability% R3” value ([3]; PAMPA, replicate R3, TIC of top well sample relative to sample at theoretical equilibrium) was 0.38%.
